The source of these data is patent US9776972B2, “Pyrazole derivatives as arginine methyltransferase inhibitors and uses thereof” (priority 2013, dated 2017).

Like-named read-outs stand apart in the source and are kept apart here.

One test deals with T1, human PRMT6 (Homo sapiens, UniProt Q96LA8).
T1 construct: Flag-PRMT6-His; made in house; host or cells: HEK 293F cells (BacMam baculovirus)
Briefly: PRMT6 Biochemical Assay (3H-SAM Flashplate, peptide substrate). From the text:
S-adenosylmethionine (SAM), S-adenosylhomocysteine (SAH), bicine, Tween20, dimethylsulfoxide (DMSO), bovine skin gelatin (BSG), sodium butyrate and Tris(2-carboxyethyl)phosphine hydrochloride solution (TCEP) were purchased from Sigma-Aldrich at the highest level of purity possible. ^3H-SAM was purchase from American Radiolabeled Chemicals with a specific activity of 80 Ci/mmol. 384-well streptavidin Flashplates were purchased from PerkinElmer.
Peptide representative of human histone H4 residues 36-50 was synthesized with an N-terminal linker-affinity tag motif and a C-terminal amide cap by 21st Century Biochemicals.
The amplified gene was subcloned into pFastBacMam (Viva Biotech).
Recombinant baculovirus were generated according to Bac-to-Bac kit instructions (Life Technologies). […] Infections were carried out at 37° C. for 48 hours, harvested by centrifugation, and stored at −80° C. for purification.
Column was washed with 20 mM imidazole in the same buffer and Flag-PRMT6-His was eluted with 150 mM imidazole. […] Flag-PRMT6-His was eluted with 200 ug/ml FLAG peptide in the same buffer. Pooled fractions were dialysed in 20 mM Tris, 150 mM NaCl, 10% glycerol and 5 mM β-mercaptoethanol, pH 7.8.
General Procedure for PRMT6 Enzyme Assays on Peptide Substrates.
(§1) The assays were all performed in a buffer consisting of 20 mM Bicine (pH=7.6), 1 mM TCEP, 0.005% BSG, and 0.002% Tween 20, prepared on the day of use. […] DMSO (1 ul) was added to Columns 11, 12, 23, 24, rows A-H for the maximum signal control and 1 ul of SAH, a known product and inhibitor of PRMT6, was added to columns 11, 12, 23, 24, rows I-P for the minimum signal control. A cocktail (40 ul) containing the PRMT6 enzyme was added by Multidrop Combi (Thermo-Fisher). The compounds were allowed to incubate with PRMT6 for 30 min at room temperature, then a cocktail (10 ul) containing SAM and peptide was added to initiate the reaction (final volume=51 ul). […] The assays were stopped by the addition of non-radiolabeled SAM (10 ul) to a final concentration of 400 uM, which dilutes the ^3H-SAM to a level where its incorporation into the peptide substrate is no longer detectable. 50 ul of the reaction in the 384-well polypropylene plate was then transferred to a 384-well Flashplate and the biotinylated peptides were allowed to bind to the streptavidin surface for at least 1 hour before being washed once with 0.1% Tween20 in a Biotek ELx405 plate washer. The plates were then read in a PerkinElmer TopCount plate reader to measure the quantity of ^3H-labeled peptide bound to the Flashplate surface, measured as disintegrations per minute (dpm) or alternatively, referred to as counts per minute (cpm).
(§2) Where dpm=disintegrations per minute, cmpd=signal in assay well, and min and max are the respective minimum and maximum signal controls.
(§3) Where top and bottom are the normally allowed to float, but may be fixed at 100 or 0 respectively in a 3-parameter fit. The Hill Coefficient normally allowed to float but may also be fixed at 1 in a 3-parameter fit. Y is the % inhibition and X is the compound concentration.

In the next test the target is T2, human PRMT1 (Homo sapiens, UniProt Q99873).
T2 construct: GST-tagged PRMT1; made in house; host or cells: High Five insect cells (baculovirus)
T2 sequence (Q99873 with tags, fused parts or gaps): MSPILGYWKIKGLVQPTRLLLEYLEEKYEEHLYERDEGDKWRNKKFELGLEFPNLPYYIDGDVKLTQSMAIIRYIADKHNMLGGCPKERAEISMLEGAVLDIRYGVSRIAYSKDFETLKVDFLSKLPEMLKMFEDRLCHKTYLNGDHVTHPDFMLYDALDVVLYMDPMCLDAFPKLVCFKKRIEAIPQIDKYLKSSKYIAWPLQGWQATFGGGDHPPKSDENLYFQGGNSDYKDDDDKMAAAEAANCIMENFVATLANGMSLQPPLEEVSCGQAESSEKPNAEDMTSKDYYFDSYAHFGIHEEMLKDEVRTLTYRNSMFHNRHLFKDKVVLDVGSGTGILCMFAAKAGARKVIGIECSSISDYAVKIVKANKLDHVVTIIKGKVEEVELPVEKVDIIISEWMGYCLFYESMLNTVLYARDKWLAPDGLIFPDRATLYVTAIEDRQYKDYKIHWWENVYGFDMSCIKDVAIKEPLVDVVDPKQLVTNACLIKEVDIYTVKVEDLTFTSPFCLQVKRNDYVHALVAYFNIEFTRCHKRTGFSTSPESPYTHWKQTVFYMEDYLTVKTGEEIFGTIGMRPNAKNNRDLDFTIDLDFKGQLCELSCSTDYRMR
Briefly: PRMT1 Biochemical Assay (3H-SAM Flashplate, peptide substrate).
From the text: S-adenosylmethionine (SAM), S-adenosylhomocysteine (SAH), bicine, Tween20, dimethylsulfoxide (DMSO), bovine skin gelatin (BSG), and Tris(2-carboxyethyl)phosphine hydrochloride solution (TCEP) were purchased from Sigma-Aldrich at the highest level of purity possible. ^3H-SAM was purchase from American Radiolabeled Chemicals with a specific activity of 80 Ci/mmol. 384-well streptavidin Flashplates were purchased from PerkinElmer.
Recombinant baculovirus were generated according to Bac-to-Bac kit instructions (Life Technologies). […] Infections were carried out at 27° C. for 48 hours, harvested by centrifugation, and stored at −80° C. for purification.
GST-tagged PRMT1 was eluted with 50 mM Tris, 2 mM glutathione, pH 7.8, dialysed in buffer A and concentrated to 1 mg/mL.
General Procedure for PRMT1 Enzyme Assays on Peptide Substrates.
as §1, with “PRMT1,” for “PRMT6,”, “PRMT1” for “PRMT6”, “300” for “400”
as §2, §3

Where [1] appears, read: Biochemical IC50 PRMT6, single experiment or average of multiple experiments.
The mark [2] stands for this setting: single experiment or average of multiple experiments.

T1 sequence (Q96LA8 with tags, fused parts or gaps): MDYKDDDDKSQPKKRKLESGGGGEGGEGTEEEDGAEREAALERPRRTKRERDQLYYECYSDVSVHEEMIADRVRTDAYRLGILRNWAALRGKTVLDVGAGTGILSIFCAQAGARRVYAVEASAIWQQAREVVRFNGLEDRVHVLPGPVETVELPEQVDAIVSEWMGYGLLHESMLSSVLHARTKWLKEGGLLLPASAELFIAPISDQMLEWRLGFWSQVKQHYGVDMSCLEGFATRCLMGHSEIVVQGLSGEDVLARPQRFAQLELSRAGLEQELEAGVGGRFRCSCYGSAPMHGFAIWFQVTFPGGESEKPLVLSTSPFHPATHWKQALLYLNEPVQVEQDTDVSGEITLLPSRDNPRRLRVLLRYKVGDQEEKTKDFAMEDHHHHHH

The IC50 is the concentration that gives 50% inhibition. As for `COc1ccc(-c2n[nH]cc2CN(C)CCN)cc1Cl` [Compound 125], the half-inhibitory concentration (IC50) at human PRMT6 (setting [1]) amounted to 6.65 nM; against human PRMT1 (setting [2]), 8.38 nM.
Turning to `CNCCN(C)Cc1c[nH]nc1-c1ccc(NC(C)C)cc1` [Compound 295], the 50% inhibitory concentration (IC50) against human PRMT6 (Biochemical IC50 PRMT6) was below 100 nM; against human PRMT6 (setting [1]), 64.9 nM; against human PRMT1, below 100 nM; on human PRMT1 (setting [2]), 28.7 nM.
As for `CN(CCN)Cc1c[nH]nc1-c1ccc(F)c(Cl)c1` [Compound 124], the figures for the IC50 against human PRMT6 (setting [1]) and on human PRMT1 (setting [2]) were 7.15 nM and 13.7 nM, respectively.
On the same counts, the results for `CN(CCN)Cc1c[nH]nc1-c1cccc(Cl)c1F` [Compound 123] are 17.1 nM and 43.9 nM.
For the compound `CNCCN(C)Cc1c[nH]nc1-c1ccc(OC2CCC2)c(F)c1` [Compound 305], the IC50 against human PRMT6 (Biochemical IC50 PRMT6) was below 100 nM; at human PRMT6 (setting [1]) it was 27.6 nM; against human PRMT1, below 100 nM; at human PRMT1 (setting [2]), 6.36 nM.
Turning to `CN(CCN)Cc1n[nH]cc1-c1ccc(Cl)cc1` [Compound 102], the IC50 at human PRMT6 (setting [1]) was 9.02 nM; on human PRMT1 (setting [2]), 11.3 nM.
As for `CCn1ncc(CN(C)CCNC)c1-c1ccc(F)cc1` [Compound 7], the IC50 against human PRMT6 (setting [1]) came out at 38.3 nM; against human PRMT1 (setting [2]) it was 265 nM.
As to `CC[C@@H](C)Oc1ccc(-c2n[nH]cc2CN(C)CCNC)cc1` [Compound 308], the IC50 at human PRMT6 (Biochemical IC50 PRMT6) is below 100 nM; on human PRMT6 (setting [1]), 13.1 nM; against human PRMT1, below 100 nM; against human PRMT1 (setting [2]), 7.07 nM.
As to `CCNC(=O)c1ccc(-c2n[nH]cc2CN(C)CCN)cc1` [Compound 136], the results for the IC50 against human PRMT6 (setting [1]) and at human PRMT1 (setting [2]) were 12.8 nM and 27.5 nM, respectively.
Regarding `CNCCN(C)Cc1c[nH]nc1-c1ccc(OC(CO)C(C)C)cc1` (stereo not shown) [Compound 286], the IC50 was below 100 nM against human PRMT6 (Biochemical IC50 PRMT6); 32.1 nM at human PRMT6 (single experiment or average of multiple experiments, read-out: Biochemical IC50 PRMT6); below 100 nM at human PRMT1; 26.5 nM against human PRMT1 (setting [2]).
Turning to `CN(CCN)Cc1c[nH]nc1-c1cc(Cl)cc(Cl)c1` [Compound 137], the half-inhibitory concentration (IC50) came out at 8.42 nM against human PRMT6 (setting [1]) and 19.2 nM on human PRMT1 (setting [2]).
For `CN(CCN)Cc1c[nH]nc1-c1ccc(Cl)cc1F` [Compound 132], the concentration for half-maximal inhibition (IC50) on human PRMT6 (setting [1]) worked out at 9.91 nM; on human PRMT1 (setting [2]) it was 23.9 nM.
For `CNCCN(C)Cc1c[nH]nc1-c1ccc(Oc2ncccn2)cc1` [Compound 302], the IC50 was below 100 nM against human PRMT6 (Biochemical IC50 PRMT6), 49.7 nM against human PRMT6 (setting [1]), below 100 nM against human PRMT1 and 33.4 nM at human PRMT1 (setting [2]).
Turning to `CC(O)c1ccc(-c2n[nH]cc2CN(C)CCN)cc1` (stereo not shown) [Compound 115], the half-inhibitory concentration (IC50) was 25.4 nM on human PRMT6 (setting [1]) and 46 nM against human PRMT1 (setting [2]).
On the same counts, the results for `CN(CCN)Cc1n[nH]cc1-c1ccc(C2CC2)cc1` [Compound 104] are 45.3 nM and 15.7 nM.
On the same counts, the results for `Cc1ccc(-c2n[nH]cc2CN(C)CCN)c(F)c1` [Compound 108] are 9.49 nM and 31.3 nM.
For the compound `COc1ccc(-c2n[nH]cc2CN(C)CCN)c(F)c1` [Compound 107], the IC50 at human PRMT6 (setting [1]) came out at 15 nM; against human PRMT1 (setting [2]) it was 44.1 nM.
Consider `CNCCN(C)Cc1c[nH]nc1-c1ccc(OC(COC)C(C)C)cc1` (stereo not shown) [Compound 311], for which the IC50 was below 100 nM on human PRMT6 (Biochemical IC50 PRMT6), 50.3 nM against human PRMT6 (setting [1]), below 100 nM against human PRMT1 and 21.6 nM against human PRMT1 (setting [2]).
For `Cc1c(F)cccc1-c1n[nH]cc1CN(C)CCN` [Compound 129], the IC50 was 52.8 nM at human PRMT6 (setting [1]) and 121 nM on human PRMT1 (setting [2]).
Regarding `CCC(COC)Oc1ccc(-c2n[nH]cc2CN(C)CCNC)cc1` (stereo not shown) [Compound 310], the half-inhibitory concentration (IC50) against human PRMT6 (Biochemical IC50 PRMT6) is below 100 nM; against human PRMT6 (setting [1]), 32.4 nM; against human PRMT1 it was below 100 nM; on human PRMT1 (setting [2]), 14.5 nM.
On to `CNCCN(C)Cc1c[nH]nc1-c1ccc(N(C)C(C)C)cc1` [Compound 300], for which the IC50 is 101 to 1000 nM against human PRMT6 (Biochemical IC50 PRMT6), 177 nM against human PRMT6 (setting [1]), below 100 nM on human PRMT1 and 27.9 nM against human PRMT1 (setting [2]).
`CN(CCN)Cc1c[nH]nc1-c1ccc(C(F)(F)F)c(F)c1` [Compound 141]: the half-maximal inhibitory concentration (IC50) at human PRMT6 (setting [1]) is 7.79 nM; against human PRMT1 (setting [2]) it was 8.16 nM.
The matching figures for `CC(C)c1ccc(-c2c[nH]nc2CN(C)CCN)cc1` [Compound 101]: 136 nM and 20.3 nM.
With `CC(C)Oc1ccc(-c2c[nH]nc2CN(C)CCN)cc1F` [Compound 144], the concentration for half-maximal inhibition (IC50) against human PRMT6 (setting [1]) stood at 49.1 nM; against human PRMT1 (setting [2]) it was 5.79 nM.
On the same counts, the results for `COc1cc(-c2n[nH]cc2CN(C)CCN)ccc1F` [Compound 142] are 16.2 nM and 29.7 nM.
Consider `CN(CCN)Cc1c[nH]nc1-c1ccccc1C#N` [Compound 140], for which the concentration for half-maximal inhibition (IC50) was 3010 nM against human PRMT6 (setting [1]) and 399 nM against human PRMT1 (setting [2]).
With `CN(CCN)Cc1c[nH]nc1-c1ccc(C2CC2)cc1` [Compound 116], the IC50 against human PRMT6 (setting [1]) is 7.3 nM; on human PRMT1 (setting [2]) it was 4.84 nM.
In the case of `COCCn1ncc(CN(C)CCN)c1-c1ccc(F)cc1` [Compound 6], the concentration for half-maximal inhibition (IC50) against human PRMT6 (setting [1]) was determined as 312 nM; on human PRMT1 (setting [2]), 3460 nM.
Take `CN(CCN)Cc1c[nH]nc1-c1cc(F)cc(Cl)c1` [Compound 121]: the half-maximal inhibitory concentration (IC50) stood at 7.48 nM on human PRMT6 (setting [1]) and 10.7 nM against human PRMT1 (setting [2]).
With `CNCCN(C)Cc1c[nH]nc1-c1ccc(OCC2CC2)cc1` [Compound 288], the IC50 against human PRMT6 (Biochemical IC50 PRMT6) was below 100 nM; on human PRMT6 (setting [1]) it was 14.3 nM; against human PRMT1, below 100 nM; against human PRMT1 (setting [2]), 8.97 nM.
With `CNCCN(C)Cc1c[nH]nc1-c1ccc(OC2COC2)cc1` [Compound 283], the 50% inhibitory concentration (IC50) was below 100 nM against human PRMT6 (Biochemical IC50 PRMT6), 25.6 nM at human PRMT6 (setting [1]), below 100 nM at human PRMT1 and 6.65 nM at human PRMT1 (setting [2]).
On to `COc1cc(Cl)cc(-c2n[nH]cc2CN(C)CCN)c1` [Compound 127], for which the IC50 against human PRMT6 (setting [1]) was 14.1 nM; against human PRMT1 (setting [2]), 46.1 nM.
Turning to `CC(C)Oc1ccc(-c2n[nH]cc2CN(C)CCN)cc1F` [Compound 97], the half-inhibitory concentration (IC50) stood at 7.35 nM at human PRMT6 (setting [1]) and 2.6 nM against human PRMT1 (setting [2]).
With `CNCCN(C)Cc1c[nH]nc1-c1ccc(Oc2ccncn2)cc1` [Compound 312], the 50% inhibitory concentration (IC50) on human PRMT6 (Biochemical IC50 PRMT6) was below 100 nM; at human PRMT6 (setting [1]) it was 19.5 nM; against human PRMT1 it was below 100 nM; at human PRMT1 (setting [2]), 11.6 nM.
On to `CNCCN(C)Cc1c[nH]nc1-c1ccc(Oc2cncnc2)cc1` [Compound 303], for which the IC50 against human PRMT6 (Biochemical IC50 PRMT6) is below 100 nM; against human PRMT6 (setting [1]), 24 nM; against human PRMT1 it was below 100 nM; at human PRMT1 (setting [2]) it was 27.9 nM.
